Laboratory results from PubChem BioAssay AID1963982 (Molecular Pharmacology Branch, DTP, NCI, 2024).
pIC50: −log10 of the molar value.

System: 313798-341-R-J2-PDC spheroids, viability
Assay: Anticancer human tumor 313798-341-R-J2-PDC patient-derived cervical squamous cell carcinoma cell line growth inhibition [PI3K]
Conditions: spheroids with HUVEC and MSC; for pIC50: curve of first compound; for viability, T/C: stronger effect = lower value
Summary of the method: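 Combination activity was assessed by viability in multicellular tumor spheroids carrying HUVEC and MSC components. Agents were tested with PI3K inhibitors from a Cmax-based top dose (or 10 microM) downward in half-log increments.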

[1] = second compound 0.0316 µM, first compound 0.0316 µM
[2] = second compound 0.0316 µM, first compound 0.1 µM
[3] = second compound 0.1 µM, first compound 0.0316 µM
[4] = second compound 0.1 µM, first compound 0.1 µM
[5] = second compound 0.316 µM, first compound 0.0316 µM
[6] = second compound 0.316 µM, first compound 0.1 µM
[7] = second compound 1 µM, first compound 0.0316 µM
[8] = second compound 1 µM, first compound 0.1 µM
[9] = second compound 3.16 µM, first compound 0.0316 µM
[10] = second compound 3.16 µM, first compound 0.1 µM
[11] = second compound 10 µM, first compound 0.0316 µM
[12] = second compound 10 µM, first compound 0.1 µM
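Also: spheroids exposed to compounds for seven days.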
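For viability, T/C in this document: 100% = DMSO vehicle control viability.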

SMILES: CC(C)n1nc(-c2ccc3oc(N)nc3c2)c2c(N)ncnc21 + CC(Nc1ncnc2nc[nH]c12)c1cc2cccc(Cl)c2c(=O)n1-c1ccccc1
- pIC50 (second compound 0.0316 µM): 7.23
- pIC50 (second compound 0.1 µM): 7.19
- pIC50 (second compound 0.316 µM): 7.19
- pIC50 (second compound 1 µM): 7.30
- pIC50 (second compound 3.16 µM): 7.26
- pIC50 (second compound 10 µM): 7.60
- viability, T/C (second compound 0.0316 µM, first compound 0.000316 µM): 102%
- viability, T/C (second compound 0.0316 µM, first compound 0.001 µM): 96.8%
- viability, T/C (second compound 0.0316 µM, first compound 0.00316 µM): 108%
- viability, T/C (second compound 0.0316 µM, first compound 0.01 µM): 96.5%
- viability, T/C [1]: 65.7%
- viability, T/C [2]: 36.6%
- viability, T/C (second compound 0.1 µM, first compound 0.000316 µM): 109%
- viability, T/C (second compound 0.1 µM, first compound 0.001 µM): 92.9%
- viability, T/C (second compound 0.1 µM, first compound 0.00316 µM): 97%
- viability, T/C (second compound 0.1 µM, first compound 0.01 µM): 101%
- viability, T/C [3]: 67.9%
- viability, T/C [4]: 39.1%
- viability, T/C (second compound 0.316 µM, first compound 0.000316 µM): 101%
- viability, T/C (second compound 0.316 µM, first compound 0.001 µM): 94.2%
- viability, T/C (second compound 0.316 µM, first compound 0.00316 µM): 100%
- viability, T/C (second compound 0.316 µM, first compound 0.01 µM): 97.4%
- viability, T/C [5]: 66.4%
- viability, T/C [6]: 40.2%
- viability, T/C (second compound 1 µM, first compound 0.000316 µM): 100%
- viability, T/C (second compound 1 µM, first compound 0.001 µM): 91.5%
- viability, T/C (second compound 1 µM, first compound 0.00316 µM): 99.8%
- viability, T/C (second compound 1 µM, first compound 0.01 µM): 89.7%
- viability, T/C [7]: 58.8%
- viability, T/C [8]: 36.8%
- viability, T/C (second compound 3.16 µM, first compound 0.000316 µM): 117%
- viability, T/C (second compound 3.16 µM, first compound 0.001 µM): 94.2%
- viability, T/C (second compound 3.16 µM, first compound 0.00316 µM): 93.7%
- viability, T/C (second compound 3.16 µM, first compound 0.01 µM): 82.2%
- viability, T/C [9]: 55.5%
- viability, T/C [10]: 40.6%
- viability, T/C (second compound 10 µM, first compound 0.000316 µM): 87.6%
- viability, T/C (second compound 10 µM, first compound 0.001 µM): 91.9%
- viability, T/C (second compound 10 µM, first compound 0.00316 µM): 78.5%
- viability, T/C (second compound 10 µM, first compound 0.01 µM): 57.1%
- viability, T/C [11]: 51.9%
- viability, T/C [12]: 27.1%

SMILES: CC1(C)CCC(CN2CCN(c3ccc(C(=O)NS(=O)(=O)c4ccc(NCC5CCOCC5)c([N+](=O)[O-])c4)c(Oc4cnc5[nH]ccc5c4)c3)CC2)=C(c2ccc(Cl)cc2)C1 + CC(Nc1ncnc2nc[nH]c12)c1cc2cccc(Cl)c2c(=O)n1-c1ccccc1
- pIC50 (second compound 0.0316 µM): 5.08
- pIC50 (second compound 0.1 µM): 5.00
- pIC50 (second compound 0.316 µM): 5.00
- pIC50 (second compound 1 µM): 5.00
- pIC50 (second compound 3.16 µM): 5.12
- pIC50 (second compound 10 µM): 5.20
- viability, T/C [1]: 104%
- viability, T/C [2]: 86.6%
- viability, T/C (second compound 0.0316 µM, first compound 0.316 µM): 107%
- viability, T/C (second compound 0.0316 µM, first compound 1 µM): 99.5%
- viability, T/C (second compound 0.0316 µM, first compound 3.16 µM): 85.2%
- viability, T/C (second compound 0.0316 µM, first compound 10 µM): 43.6%
- viability, T/C [3]: 91.6%
- viability, T/C [4]: 108%
- viability, T/C (second compound 0.1 µM, first compound 0.316 µM): 85.4%
- viability, T/C (second compound 0.1 µM, first compound 1 µM): 89.2%
- viability, T/C (second compound 0.1 µM, first compound 3.16 µM): 84.8%
- viability, T/C (second compound 0.1 µM, first compound 10 µM): 49.1%
- viability, T/C [5]: 99.4%
- viability, T/C [6]: 101%
- viability, T/C (second compound 0.316 µM, first compound 0.316 µM): 102%
- viability, T/C (second compound 0.316 µM, first compound 1 µM): 102%
- viability, T/C (second compound 0.316 µM, first compound 3.16 µM): 82.4%
- viability, T/C (second compound 0.316 µM, first compound 10 µM): 50%
- viability, T/C [7]: 103%
- viability, T/C [8]: 100%
- viability, T/C (second compound 1 µM, first compound 0.316 µM): 94.5%
- viability, T/C (second compound 1 µM, first compound 1 µM): 96.8%
- viability, T/C (second compound 1 µM, first compound 3.16 µM): 74.4%
- viability, T/C (second compound 1 µM, first compound 10 µM): 49.9%
- viability, T/C [9]: 103%
- viability, T/C [10]: 95.3%
- viability, T/C (second compound 3.16 µM, first compound 0.316 µM): 85.2%
- viability, T/C (second compound 3.16 µM, first compound 1 µM): 89.8%
- viability, T/C (second compound 3.16 µM, first compound 3.16 µM): 79.8%
- viability, T/C (second compound 3.16 µM, first compound 10 µM): 40.5%
- viability, T/C [11]: 82.1%
- viability, T/C [12]: 78.8%
- viability, T/C (second compound 10 µM, first compound 0.316 µM): 87%
- viability, T/C (second compound 10 µM, first compound 1 µM): 78.1%
- viability, T/C (second compound 10 µM, first compound 3.16 µM): 62.3%
- viability, T/C (second compound 10 µM, first compound 10 µM): 42.1%
